According to patent publication US20070128217A1 (priority 2003, published 2007):

Assays:
[1] = system: rabbit serum obtained by immunizing a rabbit with the SARS-CoV strain Frankfurt 1; assay type: binding; set-up: Binding of a rabbit serum to linear peptides / Binding of a rabbit serum to looped peptides / Rabbit serum linear peptides / Rabbit serum looped peptides / Binding of a rabbit serum to linear peptides of protein N of SARS-CoV Urbani (Rabbit serum linear peptides) / Binding of a rabbit serum to looped/cyclic peptides of protein N of SARS-CoV Urbani (Rabbit serum looped peptides): unit not given here
[2] = system: antibodies in sera from SARS patients (sera 1a, 1b, 2, 6, 37, 62, London, SARS-yellow, SARS-green); assay type: binding, human; set-up: Binding of serum 6 to linear peptides of protein X1 of SARS-CoV Urbani / Binding of serum 37 to linear peptides of protein X1 of SARS-CoV Urbani / Binding of serum 6 to looped/cyclic peptide (PEPSCAN-ELISA) / Binding of serum 37 to looped/cyclic peptide (PEPSCAN-ELISA) / Binding of serum 37 to looped/cyclic peptides of protein X1 of SARS-CoV Urbani / Binding of serum 6 to linear peptides of protein X2 / Binding of serum 37 to linear peptides of protein X2 / Binding of serum 37 to looped/cyclic peptides of protein X2 of SARS-CoV Urbani / Binding of serum 6 to linear peptides of protein M of SARS-CoV Urbani / Binding of serum 37 to linear peptides of protein M of SARS-CoV Urbani / Binding of serum 6 to looped/cyclic peptides of protein M of SARS-CoV Urbani / Binding of serum 37 to looped/cyclic peptides of protein M of SARS-CoV Urbani / Binding of serum 6 to linear peptides of protein X3 of SARS-CoV Urbani / Binding of serum 37 to linear peptides of protein X3 of SARS-CoV Urbani / Binding of serum 37 to looped/cyclic peptides of protein X3 of SARS-CoV Urbani / Binding of serum 6 to linear peptides of protein X4 of SARS-CoV Urbani / Binding of serum 37 to linear peptides of protein X4 of SARS-CoV Urbani / Binding of serum 37 to looped/cyclic peptides of protein X4 of SARS-CoV Urbani / Binding of serum 6 to linear peptides of protein X5 of SARS-CoV Urbani / Binding of serum 37 to linear peptides of protein X5 of SARS-CoV Urbani / Binding of serum 37 to looped/cyclic peptides of protein X5 of SARS-CoV Urbani / Binding of serum 6 to linear peptides of protein N of SARS-CoV Urbani / Binding of serum 37 to linear peptides of protein N of SARS-CoV Urbani / Binding of serum 6 to linear peptide (PEPSCAN-ELISA) / Binding of serum 1a to looped/cyclic peptides of protein N of SARS-CoV Urbani / Binding of serum 1b to looped/cyclic peptides of protein N of SARS-CoV Urbani / Binding of serum 2 to looped/cyclic peptides of protein N of SARS-CoV Urbani / Binding of serum 6 to looped/cyclic peptides of protein N of SARS-CoV Urbani / Binding of serum 37 to looped/cyclic peptides of protein N of SARS-CoV Urbani / Binding of serum 62 to looped/cyclic peptides of protein N of SARS-CoV Urbani / Binding of serum London to looped/cyclic peptides of protein N of SARS-CoV Urbani / Binding of serum SARS-green to looped/cyclic peptides of protein N of SARS-CoV Urbani: unit not given here
[3] = system: control sera (pooled serum of ten healthy LUMC hospital workers; commercial negative donor pooled serum from the Dutch bloodbank); assay type: binding, human; set-up: Binding of Control serum LUMC to linear peptides / Binding of Control serum Blood-bank to linear peptides / Binding of Control serum LUMC to looped peptides / Binding of Control Serum Blood-Bank to Looped peptides / Binding of Control serum LUMC to linear peptides of the protein M of SARS-CoV Urbani / Binding of Control serum Blood-bank to linear peptides of the protein M of SARS-CoV Urbani / Binding of Control serum LUMC to looped peptides of the protein M of SARS-CoV Urbani / Binding of Control Serum Blood-Bank to Looped peptides of the protein M of SARS-CoV Urbani: unit not given here

Sequence: IANACIVGLMWLSYF
- Rabbit serum linear peptides [1]: 0.1
- Rabbit serum looped peptides [1]: 0.0

Sequence: SPFHPLADNKFALTC
- Rabbit serum linear peptides [1]: 0.4
- Rabbit serum looped peptides [1]: 0.5

Sequence: VQQELYSPLFLIVAA
- Binding of serum 1a to linear peptides of protein X4 of SARS-CoV Urbani [2]: 0.7
- Binding of serum 1a to looped/cyclic peptides of protein X4 of SARS-CoV Urbani [2]: 0.8
- Binding of serum 1b to linear peptides of protein X4 of SARS-CoV Urbani [2]: 0.6
- Binding of serum 1b to looped/cyclic peptides of protein X4 of SARS-CoV Urbani [2]: 0.5
- Binding of serum 2 to linear peptides of protein X4 of SARS-CoV Urbani [2]: 0.6
- Binding of serum 2 to looped/cyclic peptides of protein X4 of SARS-CoV Urbani [2]: 0.7
- Binding of serum 6 to linear peptides of protein X4 of SARS-CoV Urbani [2]: 0.9
- Binding of serum 6 to looped/cyclic peptides of protein X4 of SARS-CoV Urbani [2]: 0.5
- Binding of serum 37 to linear peptides of protein X4 of SARS-CoV Urbani [2]: 0.7
- Binding of serum 37 to looped/cyclic peptides of protein X4 of SARS-CoV Urbani [2]: 0.7
- Binding of serum 62 to linear peptides of protein X4 of SARS-CoV Urbani [2]: 0.7
- Binding of serum 62 to looped/cyclic peptides of protein X4 of SARS-CoV Urbani [2]: 0.7
- Binding of serum London to linear peptides of protein X4 of SARS-CoV Urbani [2]: 0.9
- Binding of serum London to looped/cyclic peptides of protein X4 of SARS-CoV Urbani [2]: 0.3
- Binding of serum SARS-green to linear peptides of protein X4 of SARS-CoV Urbani [2]: 0.6
- Binding of serum SARS-green to looped/cyclic peptides of protein X4 of SARS-CoV Urbani [2]: 0.4
- Binding of serum SARS-yellow to linear peptides of protein X4 of SARS-CoV Urbani [2]: 0.5
- Binding of serum SARS-yellow to looped/cyclic peptides of protein X4 of SARS-CoV Urbani [2]: 0.8
- Recognition of the peptide by sera of SARS-CoV infected individuals, and form (linear, looped/cyclic) in which it is recognized [2]: recognized in looped/cyclic form
- Binding of Control Serum Blood-Bank to Looped peptides [3]: 0.7
- Binding of Control serum Blood-bank to linear peptides [3]: 0.6
- Binding of Control serum LUMC to linear peptides [3]: 0.5
- Binding of Control serum LUMC to looped peptides [3]: 0.6

Sequence: FICNLLLLFVTTYSH
- Binding of Control Serum Blood-Bank to Looped peptides [3]: 0.5
- Binding of Control serum Blood-bank to linear peptides [3]: 0.6
- Binding of Control serum LUMC to linear peptides [3]: 0.5
- Binding of Control serum LUMC to looped peptides [3]: 0.5

Sequence: GHPLGRCDIKDLPKE
- Binding of Control Serum Blood-Bank to Looped peptides of the protein M of SARS-CoV Urbani [3]: 0.7
- Binding of Control serum Blood-bank to linear peptides of the protein M of SARS-CoV Urbani [3]: 0.6
- Binding of Control serum LUMC to linear peptides of the protein M of SARS-CoV Urbani [3]: 0.6
- Binding of Control serum LUMC to looped peptides of the protein M of SARS-CoV Urbani [3]: 0.7

Sequence: TGTLIVNSVLLPLAF
- Binding of serum 1a to linear peptides of protein E of SARS-CoV Urbani [2]: 0.7
- Binding of serum 1b to linear peptides of protein E of SARS-CoV Urbani [2]: 0.5
- Binding of serum 2 to linear peptides of protein E of SARS-CoV Urbani [2]: 0.3
- Binding of serum 6 to linear peptides of protein E of SARS-CoV Urbani [2]: 0.6
- Binding of serum 37 to linear peptides of protein E of SARS-CoV Urbani [2]: 0.7
- Binding of serum 62 to linear peptides of protein E of SARS-CoV Urbani [2]: 0.6
- Binding of serum London to linear peptides of protein E of SARS-CoV Urbani [2]: 0.4
- Binding of serum SARS-green to linear peptides of protein E of SARS-CoV Urbani [2]: 0.4
- Binding of serum SARS-yellow to linear peptides of protein E of SARS-CoV Urbani [2]: 0.2

Sequence: IAMACIVGLMWLSYF
- Binding of serum 1a to linear peptides of protein M of SARS-CoV Urbani [2]: 0.6
- Binding of serum 1a to looped/cyclic peptides of protein M of SARS-CoV Urbani [2]: 0.6
- Binding of serum 1b to linear peptides of protein M of SARS-CoV Urbani [2]: 0.5
- Binding of serum 1b to looped/cyclic peptides of protein M of SARS-CoV Urbani [2]: 0.4
- Binding of serum 2 to linear peptides of protein M of SARS-CoV Urbani [2]: 0.4
- Binding of serum 2 to looped/cyclic peptides of protein M of SARS-CoV Urbani [2]: 0.4
- Binding of serum 6 to linear peptides of protein M of SARS-CoV Urbani [2]: 0.3
- Binding of serum 6 to looped/cyclic peptides of protein M of SARS-CoV Urbani [2]: 0.7
- Binding of serum 37 to linear peptides of protein M of SARS-CoV Urbani [2]: 0.3
- Binding of serum 37 to looped/cyclic peptides of protein M of SARS-CoV Urbani [2]: 0.4
- Binding of serum 62 to linear peptides of protein M of SARS-CoV Urbani [2]: 0.3
- Binding of serum 62 to looped/cyclic peptides of protein M of SARS-CoV Urbani [2]: 0.4
- Binding of serum London to linear peptides of protein M of SARS-CoV Urbani [2]: 0.3
- Binding of serum London to looped/cyclic peptides of protein M of SARS-CoV Urbani [2]: 0.2
- Binding of serum SARS-green to linear peptides of protein M of SARS-CoV Urbani [2]: 0.3
- Binding of serum SARS-green to looped/cyclic peptides of protein M of SARS-CoV Urbani [2]: 0.3
- Binding of serum SARS-yellow to linear peptides of protein M of SARS-CoV Urbani [2]: 0.2
- Binding of serum SARS-yellow to looped/cyclic peptides of protein M of SARS-CoV Urbani [2]: 0.6
- Binding of Control Serum Blood-Bank to Looped peptides of the protein M of SARS-CoV Urbani [3]: 0.6
- Binding of Control serum Blood-bank to linear peptides of the protein M of SARS-CoV Urbani [3]: 0.5
- Binding of Control serum LUMC to linear peptides of the protein M of SARS-CoV Urbani [3]: 0.6
- Binding of Control serum LUMC to looped peptides of the protein M of SARS-CoV Urbani [3]: 0.7

Sequence: MVQTGTPNVTINCQD
- Binding of Control Serum Blood-Bank to Looped peptides [3]: 0.3
- Binding of Control serum Blood-bank to linear peptides [3]: 0.8
- Binding of Control serum LUMC to linear peptides [3]: 0.6
- Binding of Control serum LUMC to looped peptides [3]: 0.3

Sequence: IGVAFLAVPQSATKI
- Binding of Control Serum Blood-Bank to Looped peptides [3]: 0.5
- Binding of Control serum Blood-bank to linear peptides [3]: 0.8
- Binding of Control serum LUMC to linear peptides [3]: 0.8
- Binding of Control serum LUMC to looped peptides [3]: 0.5

Sequence: RCWLGWKCKSKNPLL
- Binding of Control Serum Blood-Bank to Looped peptides [3]: 0.7
- Binding of Control serum Blood-bank to linear peptides [3]: 1.2
- Binding of Control serum LUMC to linear peptides [3]: 1.0
- Binding of Control serum LUMC to looped peptides [3]: 0.7

Sequence: SLTSLLKTHRMCKYT
- Binding of serum 1a to linear peptides of protein X2 [2]: 0.8
- Binding of serum 1a to looped/cyclic peptides of protein X2 of SARS-CoV Urbani [2]: 0.3
- Binding of serum 1b to linear peptides of protein X2 [2]: 0.4
- Binding of serum 1b to looped/cyclic peptides of protein X2 of SARS-CoV Urbani [2]: 0.3
- Binding of serum 2 to linear peptides of protein X2 [2]: 0.4
- Binding of serum 2 to looped/cyclic peptides of protein X2 of SARS-CoV Urbani [2]: 0.1
- Binding of serum 6 to linear peptides of protein X2 [2]: 0.4
- Binding of serum 6 to looped/cyclic peptides of protein X2 of SARS-CoV Urbani [2]: 0.2
- Binding of serum 37 to linear peptides of protein X2 [2]: 0.3
- Binding of serum 37 to looped/cyclic peptides of protein X2 of SARS-CoV Urbani [2]: 0.2
- Binding of serum 62 to linear peptides of protein X2 [2]: 0.7
- Binding of serum 62 to looped/cyclic peptides of protein X2 of SARS-CoV Urbani [2]: 0.4
- Binding of serum London to linear peptides of protein X2 [2]: 0.4
- Binding of serum London to looped/cyclic peptides of protein X2 of SARS-CoV Urbani [2]: 0.2
- Binding of serum SARS-green to linear peptides of protein X2 [2]: 0.5
- Binding of serum SARS-green to looped/cyclic peptides of protein X2 of SARS-CoV Urbani [2]: 0.2
- Binding of serum SARS-yellow to linear peptides of protein X2 [2]: 0.3
- Binding of serum SARS-yellow to looped/cyclic peptides of protein X2 of SARS-CoV Urbani [2]: 0.3

Sequence: TTVYHTTVSQIQLSL
- Binding of Control Serum Blood-Bank to Looped peptides [3]: 0.6
- Binding of Control serum Blood-bank to linear peptides [3]: 0.6
- Binding of Control serum LUMC to linear peptides [3]: 0.7
- Binding of Control serum LUMC to looped peptides [3]: 0.5
